Laboratory results taken from US6479435B1, “Diaryl ethers and processes for their preparation and herbicidal and desiccant compositions containing them” (ISK Americas Incorporated, priority 1997, dated 2002).

Key:
Type in all cases: in vivo
[1] = test system: upland rice (Oryza sp., var.Tebonnet, RICE); assay: Post-emerge greenhouse test, crop damage rating; conditions: 14 days after application
In short: (§1)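 Compounds in acetone with 0.25% v/v non-ionic surfactant were track-sprayed at 187 l/ha over plants at the 2-3 leaf stage, at 63 to 1000 g ai/ha. Pots were bottom-watered. Injury was scored visually 14 days later on a 0-100 scale, where 0 is no damage and 100 is complete plant death.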

[2] = test system: field corn (Zea mays L., var. Dekalb 535, CORN); assay: Post-emerge greenhouse test, crop damage rating; conditions: 14 days after application
In short: as §1

[3] = test system: soybean (Glycine max L., var. Pella 86, SOY); assay: Post-emerge greenhouse test, crop damage rating; conditions: 14 days after application
In short: as §1

[4] = test system: common ragweed (Ambrosia artemisiifolia L., AMBEL); assay: Post-emerge greenhouse herbicide test, phytotoxicity rating; conditions: 14 days after application
In short: as §1

[5] = test system: redroot pigweed (Amaranthus retroflexus, AMARE); assay: as above; conditions: 14 days after application
In short: as §1

[6] = test system: ivyleaf morningglory (Ipomoea hederacea, IPOHE); assay: as above; conditions: 14 days after application
In short: as §1

[7] = test system: Johnsongrass (Sorghum halepense, SORHA); assay: as above; conditions: 14 days after application
In short: as §1

[8] = test system: sicklepod (Cassia obtusifolia, CASOB); assay: as above; conditions: 14 days after application
In short: as §1

[9] = test system: large crabgrass (Digitaria sanguinalis, DIGSA); assay: as above; conditions: 14 days after application
In short: as §1

[10] = test system: velvetleaf (Abutilon theophrasti, ABUTH); assay: as above; conditions: 14 days after application
In short: as §1

[11] = test system: barnyardgrass (Echinochloa crusgalli, ECHCG); assay: as above; conditions: 14 days after application
In short: as §1

[12] = test system: lambsquarters (Chenopodium album, CHEAL); assay: as above; conditions: 14 days after application
In short: as §1

[13] = test system: green foxtail (Setaria viridis, SETVI); assay: as above; conditions: 14 days after application
In short: as §1

[14] = test system: upland rice (Oryza sp., var.Tebonnet, RICE); assay: Pre-emerge greenhouse test, crop damage rating; conditions: 14 days after application, rating scale 0-100
In short: (§2)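 Seeds sown in sandy loam mix one day before track-sprayer application of compounds in acetone at 125–1000 g ai/ha (187 l/ha), then surface-watered to incorporate and bottom-watered. Visual rating 14 days after application on a 0–100 scale (0 = no damage, 100 = all plants dead).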

[15] = test system: field corn (Zea mays L., var. Dekalb 535, CORN); assay: Pre-emerge greenhouse test, crop damage rating; conditions: 14 days after application, rating scale 0-100
In short: as §2

[16] = test system: redroot pigweed (Amaranthus retroflexus, AMARE); assay: Pre-emerge greenhouse herbicide test, phytotoxicity rating; conditions: 14 days after application, rating scale 0-100
In short: as §2

[17] = test system: ivyleaf morningglory (Ipomoea hederacea, IPOHE); assay: as above; conditions: 14 days after application, rating scale 0-100
In short: as §2

[18] = test system: Johnsongrass (Sorghum halepense, SORHA); assay: as above; conditions: 14 days after application, rating scale 0-100
In short: as §2

[19] = test system: sicklepod (Cassia obtusifolia, CASOB); assay: as above; conditions: 14 days after application, rating scale 0-100
In short: as §2

[20] = test system: large crabgrass (Digitaria sanguinalis, DIGSA); assay: as above; conditions: 14 days after application, rating scale 0-100
In short: as §2

[21] = test system: velvetleaf (Abutilon theophrasti, ABUTH); assay: as above; conditions: 14 days after application, rating scale 0-100
In short: as §2

[22] = test system: barnyardgrass (Echinochloa crusgalli, ECHCG); assay: as above; conditions: 14 days after application, rating scale 0-100
In short: as §2

[23] = test system: common ragweed (Ambrosia artemisiifolia L., AMBEL); assay: as above; conditions: 14 days after application, rating scale 0-100
In short: as §2

[24] = test system: lambsquarters (Chenopodium album, CHEAL); assay: as above; conditions: 14 days after application, rating scale 0-100
In short: as §2

[25] = test system: green foxtail (Setaria viridis, SETVI); assay: as above; conditions: 14 days after application, rating scale 0-100
In short: as §2

[26] = test system: soybean (Glycine max L., var. Pella 86, SOY); assay: Pre-emerge greenhouse test, crop damage rating; conditions: 14 days after application, rating scale 0-100
In short: as §2

CCN1CC(=O)N(c2cc(Oc3ncccn3)c(Cl)cc2F)C1=O [Compound 8-2]
RICE crop damage rating (0-100) ([1]; 63 g al/ha): 0
RICE crop damage rating (0-100) ([1]; 500 g al/ha): 70
CORN crop damage rating (0-100) ([2]; 63 g al/ha): 5
CORN crop damage rating (0-100) ([2]; 500 g al/ha): 15
SOY crop damage rating (0-100) ([3]; 63 g al/ha): 10
SOY crop damage rating (0-100) ([3]; 500 g al/ha): 90
AMBEL phytotoxicity rating (0-100) ([4]; 63 g al/ha): 30
AMBEL phytotoxicity rating (0-100) ([4]; 500 g al/ha): 95
AMARE phytotoxicity rating (0-100) ([5]; 63 g al/ha): 60
AMARE phytotoxicity rating (0-100) ([5]; 500 g al/ha): 100
IPOHE phytotoxicity rating (0-100) ([6]; 63 g al/ha): 70
IPOHE phytotoxicity rating (0-100) ([6]; 500 g al/ha): 100
SORHA phytotoxicity rating (0-100) ([7]; 63 g al/ha): 0
SORHA phytotoxicity rating (0-100) ([7]; 500 g al/ha): 20
CASOB phytotoxicity rating (0-100) ([8]; 63 g al/ha): 20
CASOB phytotoxicity rating (0-100) ([8]; 500 g al/ha): 50
DIGSA phytotoxicity rating (0-100) ([9]; 63 g al/ha): 0
DIGSA phytotoxicity rating (0-100) ([9]; 500 g al/ha): 20
ABUTH phytotoxicity rating (0-100) ([10]; 63 g al/ha): 60
ABUTH phytotoxicity rating (0-100) ([10]; 500 g al/ha): 100
ECHCG phytotoxicity rating (0-100) ([11]; 63 g al/ha): 10
ECHCG phytotoxicity rating (0-100) ([11]; 500 g al/ha): 50
CHEAL phytotoxicity rating (0-100) ([12]; 63 g al/ha): 80
CHEAL phytotoxicity rating (0-100) ([12]; 500 g al/ha): 100
SETVI phytotoxicity rating (0-100) ([13]; 63 g al/ha): 10
SETVI phytotoxicity rating (0-100) ([13]; 500 g al/ha): 30
crop damage rating RICE ([14]; 125 g ai/ha): 40
crop damage rating RICE ([14]; 500 g ai/ha): 90
crop damage rating CORN ([15]; 125 g ai/ha): 0
crop damage rating CORN ([15]; 500 g ai/ha): 50
phytotoxicity rating AMARE ([16]; 125 g ai/ha): 100
phytotoxicity rating AMARE ([16]; 500 g ai/ha): 100
phytotoxicity rating IPOHE ([17]; 125 g ai/ha): 100
phytotoxicity rating IPOHE ([17]; 500 g ai/ha): 100
phytotoxicity rating SORHA ([18]; 125 g ai/ha): 20
phytotoxicity rating SORHA ([18]; 500 g ai/ha): 100
phytotoxicity rating CASOB ([19]; 125 g ai/ha): 0
phytotoxicity rating CASOB ([19]; 500 g ai/ha): 80
phytotoxicity rating DIGSA ([20]; 125 g ai/ha): 90
phytotoxicity rating DIGSA ([20]; 500 g ai/ha): 100
phytotoxicity rating ABUTH ([21]; 125 g ai/ha): 100
phytotoxicity rating ABUTH ([21]; 500 g ai/ha): 100
phytotoxicity rating ECHCG ([22]; 125 g ai/ha): 10
phytotoxicity rating ECHCG ([22]; 500 g ai/ha): 100
phytotoxicity rating AMBEL ([23]; 125 g ai/ha): 95
phytotoxicity rating AMBEL ([23]; 500 g ai/ha): 100
phytotoxicity rating CHEAL ([24]; 125 g ai/ha): 100
phytotoxicity rating CHEAL ([24]; 500 g ai/ha): 100
phytotoxicity rating SETVI ([25]; 125 g ai/ha): 95
phytotoxicity rating SETVI ([25]; 500 g ai/ha): 100
crop damage rating SOY ([26]; 125 g ai/ha): 0
crop damage rating SOY ([26]; 500 g ai/ha): 20
